Reference: PubChem BioAssay AID1845200 (Molecular Pharmacology Branch, DTP, NCI, 2023)

Tested on: ASPS-1 complex tumor spheroids, viability
Experiment: Anticancer human tumor ASPS-1 cell line growth inhibition;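 note: spheroids exposed to agents for 7 days after 3 days of growth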;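 for viability, T/C: 100% = DMSO vehicle treated spheroids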
Conditions: for IC50: curve of first compound; for viability, T/C: stronger effect = lower value
Procedure, shortened: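 Single agents and combinations were tested on spheroids built from tumor cells plus HUVEC and hMSC, at half-log dilutions starting at or near clinical Cmax, else 10 microM; final DMSO 0.25% (v/v).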

[1] = second compound 0.003 µM, first compound 0.0316 µM
[2] = second compound 0.003 µM, first compound 0.1 µM
[3] = second compound 0.003 µM, first compound 0.316 µM
[4] = second compound 0.003 µM, first compound 1 µM
[5] = second compound 0.003 µM, first compound 3.16 µM
[6] = second compound 0.003 µM, first compound 10 µM
[7] = second compound 0.00949 µM, first compound 0.0316 µM
[8] = second compound 0.00949 µM, first compound 0.1 µM
[9] = second compound 0.00949 µM, first compound 0.316 µM
[10] = second compound 0.00949 µM, first compound 1 µM
[11] = second compound 0.00949 µM, first compound 3.16 µM
[12] = second compound 0.00949 µM, first compound 10 µM
[13] = second compound 0.03 µM, first compound 0.0316 µM
[14] = second compound 0.03 µM, first compound 0.1 µM
[15] = second compound 0.03 µM, first compound 0.316 µM
[16] = second compound 0.03 µM, first compound 1 µM
[17] = second compound 0.03 µM, first compound 3.16 µM
[18] = second compound 0.03 µM, first compound 10 µM
[19] = second compound 0.0949 µM, first compound 0.0316 µM
[20] = second compound 0.0949 µM, first compound 0.1 µM
[21] = second compound 0.0949 µM, first compound 0.316 µM
[22] = second compound 0.0949 µM, first compound 1 µM
[23] = second compound 0.0949 µM, first compound 3.16 µM
[24] = second compound 0.0949 µM, first compound 10 µM
[25] = second compound 0.3 µM, first compound 0.0316 µM
[26] = second compound 0.3 µM, first compound 0.1 µM
[27] = second compound 0.3 µM, first compound 0.316 µM
[28] = second compound 0.3 µM, first compound 1 µM
[29] = second compound 0.3 µM, first compound 3.16 µM
[30] = second compound 0.3 µM, first compound 10 µM
[31] = second compound 30 pM, first compound 0.00949 µM
[32] = second compound 30 pM, first compound 0.03 µM
[33] = second compound 30 pM, first compound 0.0949 µM
[34] = second compound 30 pM, first compound 0.3 µM
[35] = second compound 30 pM, first compound 0.949 µM
[36] = second compound 30 pM, first compound 3 µM
[37] = second compound 94.9 pM, first compound 0.00949 µM
[38] = second compound 94.9 pM, first compound 0.03 µM
[39] = second compound 94.9 pM, first compound 0.0949 µM
[40] = second compound 94.9 pM, first compound 0.3 µM
[41] = second compound 94.9 pM, first compound 0.949 µM
[42] = second compound 94.9 pM, first compound 3 µM
[43] = second compound 0.0003 µM, first compound 0.00949 µM
[44] = second compound 0.0003 µM, first compound 0.03 µM
[45] = second compound 0.0003 µM, first compound 0.0949 µM
[46] = second compound 0.0003 µM, first compound 0.3 µM
[47] = second compound 0.0003 µM, first compound 0.949 µM
[48] = second compound 0.0003 µM, first compound 3 µM
[49] = second compound 0.000949 µM, first compound 0.00949 µM
[50] = second compound 0.000949 µM, first compound 0.03 µM
[51] = second compound 0.000949 µM, first compound 0.0949 µM
[52] = second compound 0.000949 µM, first compound 0.3 µM
[53] = second compound 0.000949 µM, first compound 0.949 µM
[54] = second compound 0.000949 µM, first compound 3 µM
[55] = second compound 0.003 µM, first compound 0.00949 µM
[56] = second compound 0.003 µM, first compound 0.03 µM
[57] = second compound 0.003 µM, first compound 0.0949 µM
[58] = second compound 0.003 µM, first compound 0.3 µM
[59] = second compound 0.003 µM, first compound 0.949 µM
[60] = second compound 0.003 µM, first compound 3 µM

CC(C)n1c(=O)n(C)c2cnc3cc(F)c(-c4ccc(OCCCN5CCCCC5)nc4)cc3c21 + CC[C@@]1(O)C(=O)OCc2c1cc1n(c2=O)Cc2cc3c(CN(C)C)c(O)ccc3nc2-1
IC50 (second compound 0.003 µM): 6680 nM
IC50 (second compound 0.00949 µM): 5200 nM
IC50 (second compound 0.03 µM): 184 nM
IC50 (second compound 0.0949 µM): 161 nM
IC50 (second compound 0.3 µM): 188 nM
viability, T/C [1]: 99.3%
viability, T/C [2]: 99.6%
viability, T/C [3]: 108%
viability, T/C [4]: 98%
viability, T/C [5]: 82.9%
viability, T/C [6]: 32.4%
viability, T/C [7]: 82.9%
viability, T/C [8]: 69.2%
viability, T/C [9]: 71%
viability, T/C [10]: 65.6%
viability, T/C [11]: 67%
viability, T/C [12]: 30.6%
viability, T/C [13]: 61.1%
viability, T/C [14]: 53%
viability, T/C [15]: 48%
viability, T/C [16]: 31.3%
viability, T/C [17]: 33.2%
viability, T/C [18]: 27.1%
viability, T/C [19]: 64.3%
viability, T/C [20]: 54.7%
viability, T/C [21]: 41.8%
viability, T/C [22]: 21.9%
viability, T/C [23]: 22.4%
viability, T/C [24]: 26.1%
viability, T/C [25]: 62.9%
viability, T/C [26]: 60.6%
viability, T/C [27]: 40.9%
viability, T/C [28]: 22%
viability, T/C [29]: 20.9%
viability, T/C [30]: 24.2%

COc1ccc([C@@H](O)c2cc(-c3ncnc4cc(N5CCOCC5)ccc34)c(F)cc2Cl)nn1 + CC[C@@]1(O)C(=O)OCc2c1cc1n(c2=O)Cc2cc3c(CN(C)C)c(O)ccc3nc2-1
IC50 (second compound 0.003 µM): 8870 nM
IC50 (second compound 0.00949 µM): 6690 nM
IC50 (second compound 0.03 µM): 3020 nM
IC50 (second compound 0.0949 µM): 330 nM
IC50 (second compound 0.3 µM): 214 nM
viability, T/C [1]: 110%
viability, T/C [2]: 106%
viability, T/C [3]: 101%
viability, T/C [4]: 98.1%
viability, T/C [5]: 80.3%
viability, T/C [6]: 46.1%
viability, T/C [7]: 104%
viability, T/C [8]: 104%
viability, T/C [9]: 101%
viability, T/C [10]: 90.2%
viability, T/C [11]: 66.6%
viability, T/C [12]: 41.1%
viability, T/C [13]: 82%
viability, T/C [14]: 87.9%
viability, T/C [15]: 82.8%
viability, T/C [16]: 73.8%
viability, T/C [17]: 49.1%
viability, T/C [18]: 31.9%
viability, T/C [19]: 56.1%
viability, T/C [20]: 54.7%
viability, T/C [21]: 50.6%
viability, T/C [22]: 31.4%
viability, T/C [23]: 22.7%
viability, T/C [24]: 26.1%
viability, T/C [25]: 62.5%
viability, T/C [26]: 58.4%
viability, T/C [27]: 45.7%
viability, T/C [28]: 32.4%
viability, T/C [29]: 23.9%
viability, T/C [30]: 16.4%

CNCc1ccc(-c2cc(-c3nc(-c4ccc(S(=O)(=O)C(C)C)cc4)cnc3N)on2)cc1 + COc1cc2c(cc1O)CCNC21CSC2c3c(OC(C)=O)c(C)c4c(c3C(COC1=O)N1C(O)C3Cc5cc(C)c(OC)c(O)c5C(C21)N3C)OCO4
IC50 (second compound 30 pM): 922 nM
IC50 (second compound 94.9 pM): 857 nM
IC50 (second compound 0.0003 µM): 552 nM
IC50 (second compound 0.000949 µM): 185 nM
IC50 (second compound 0.003 µM): < 9.49 nM
viability, T/C [31]: 109%
viability, T/C [32]: 104%
viability, T/C [33]: 105%
viability, T/C [34]: 74.3%
viability, T/C [35]: 51.9%
viability, T/C [36]: 14.9%
viability, T/C [37]: 106%
viability, T/C [38]: 108%
viability, T/C [39]: 108%
viability, T/C [40]: 80.8%
viability, T/C [41]: 48.3%
viability, T/C [42]: 9.57%
viability, T/C [43]: 106%
viability, T/C [44]: 111%
viability, T/C [45]: 102%
viability, T/C [46]: 66.4%
viability, T/C [47]: 34.7%
viability, T/C [48]: 5.83%
viability, T/C [49]: 85.8%
viability, T/C [50]: 83%
viability, T/C [51]: 64.9%
viability, T/C [52]: 36.1%
viability, T/C [53]: 20.2%
viability, T/C [54]: 1.09%
viability, T/C [55]: 16.9%
viability, T/C [56]: 24.3%
viability, T/C [57]: 15.2%
viability, T/C [58]: 2.85%
viability, T/C [59]: 0.66%
viability, T/C [60]: 0.65%

Cn1ncnc1[C@H]1c2n[nH]c(=O)c3cc(F)cc(c23)N[C@@H]1c1ccc(F)cc1 + COc1cc2c(cc1O)CCNC21CSC2c3c(OC(C)=O)c(C)c4c(c3C(COC1=O)N1C(O)C3Cc5cc(C)c(OC)c(O)c5C(C21)N3C)OCO4
IC50 (second compound 30 pM): > 3000 nM
IC50 (second compound 94.9 pM): > 3000 nM
IC50 (second compound 0.0003 µM): 2230 nM
IC50 (second compound 0.000949 µM): 562 nM
IC50 (second compound 0.003 µM): < 9.49 nM
viability, T/C [31]: 102%
viability, T/C [32]: 93.8%
viability, T/C [33]: 101%
viability, T/C [34]: 101%
viability, T/C [35]: 89.3%
viability, T/C [36]: 62.8%
viability, T/C [37]: 97.3%
viability, T/C [38]: 97.2%
viability, T/C [39]: 98%
viability, T/C [40]: 94%
viability, T/C [41]: 88.8%
viability, T/C [42]: 57.5%
viability, T/C [43]: 86%
viability, T/C [44]: 89.8%
viability, T/C [45]: 85.2%
viability, T/C [46]: 83.3%
viability, T/C [47]: 75.4%
viability, T/C [48]: 40.9%
viability, T/C [49]: 70.3%
viability, T/C [50]: 63.5%
viability, T/C [51]: 56.7%
viability, T/C [52]: 59.7%
viability, T/C [53]: 45.1%
viability, T/C [54]: 28.4%
viability, T/C [55]: 21.5%
viability, T/C [56]: 21.8%
viability, T/C [57]: 19.4%
viability, T/C [58]: 16.6%
viability, T/C [59]: 13.3%
viability, T/C [60]: 4.87%

O=C(c1cc(Cc2n[nH]c(=O)c3ccccc23)ccc1F)N1CCN(C(=O)C2CC2)CC1 + COc1cc2c(cc1O)CCNC21CSC2c3c(OC(C)=O)c(C)c4c(c3C(COC1=O)N1C(O)C3Cc5cc(C)c(OC)c(O)c5C(C21)N3C)OCO4
IC50 (second compound 30 pM): 26000 nM
IC50 (second compound 94.9 pM): 22100 nM
IC50 (second compound 0.0003 µM): 13000 nM
IC50 (second compound 0.000949 µM): 2080 nM
IC50 (second compound 0.003 µM): < 94.9 nM
viability, T/C [33]: 114%
viability, T/C [34]: 112%
viability, T/C [35]: 105%
viability, T/C [36]: 107%
viability, T/C (second compound 30 pM, first compound 9.49 µM): 106%
viability, T/C (second compound 30 pM, first compound 30 µM): 42.2%
viability, T/C [39]: 103%
viability, T/C [40]: 103%
viability, T/C [41]: 108%
viability, T/C [42]: 101%
viability, T/C (second compound 94.9 pM, first compound 9.49 µM): 98.6%
viability, T/C (second compound 94.9 pM, first compound 30 µM): 32.5%
viability, T/C [45]: 97.8%
viability, T/C [46]: 106%
viability, T/C [47]: 102%
viability, T/C [48]: 98.5%
viability, T/C (second compound 0.0003 µM, first compound 9.49 µM): 60.3%
viability, T/C (second compound 0.0003 µM, first compound 30 µM): 22.9%
viability, T/C [51]: 73%
viability, T/C [52]: 75.1%
viability, T/C [53]: 59.5%
viability, T/C [54]: 45.3%
viability, T/C (second compound 0.000949 µM, first compound 9.49 µM): 21.5%
viability, T/C (second compound 0.000949 µM, first compound 30 µM): 4.17%
viability, T/C [57]: 21.6%
viability, T/C [58]: 22.4%
viability, T/C [59]: 17.4%
viability, T/C [60]: 12.7%
viability, T/C (second compound 0.003 µM, first compound 9.49 µM): 3.59%
viability, T/C (second compound 0.003 µM, first compound 30 µM): 1.41%
